EC50 data for 1 compound are collected here from patent US20240391931A1 (Bristol-Myers Squibb Company, priority 2021, published 2024).

The target of this experiment is EGFR (Homo sapiens, UniProt P00533). Briefly: EGFR occupancy in N87 cells. It is filed as cell-based. Also noted: endogenous in cells; host or cells: N87. To be noted: N87 cells; concentration at which 50% of EGFR is irreversible bound; read-out: N87 EGFR Occ. How it is done:
In order to assess free EGFR protein, a biotinylated probe was utilized as described for HER2 occupancy. N87 cells were plated, treated, and lysed as described for HER2 occupancy method. After treatment, the cells were washed three times with cold PBS, lysed at room temperature for 1 hr in modified occupancy lysis buffer (prepared as described in section titled “HER2 Occupancy Assay”). Lysates were stored at −70° C. until further analysis. For determination of % occupancy, lysates were loaded into duplicate plates of the phospho (Tyr 1068)/total EGFR whole cell lysate kit (Meso-Scale Discovery) and incubated overnight. Plates were washed and incubated with either EGFR-sulfoTag (1:50, Meso Scale Discovery) or Strep-Sulfo Tag (1:1000, Meso Scale Discovery), for detection of free and total EGFR, respectively. BSA control spots included in MSD plates were used to subtract non-specific signal. A standard curve of untreated cells in serial dilution was included in each plate to convert streptavidin and total EGFR MSD signals into free EGFR and total EGFR. Free EGFR was normalized to total EGFR for each sample. Data, reported as % […] control, was fitted using a sigmoidal curve analysis program (Graph Pad Prism version 6) with variable Hill slope to determine EC50 values. The results are provided in Table 4, under column titled “N87-EGFR Occ”. EGFR Occ is the concentration of test compound at which 50% of EGFR is irreversible bound.

EGFR, sequence (P00533 25-1210): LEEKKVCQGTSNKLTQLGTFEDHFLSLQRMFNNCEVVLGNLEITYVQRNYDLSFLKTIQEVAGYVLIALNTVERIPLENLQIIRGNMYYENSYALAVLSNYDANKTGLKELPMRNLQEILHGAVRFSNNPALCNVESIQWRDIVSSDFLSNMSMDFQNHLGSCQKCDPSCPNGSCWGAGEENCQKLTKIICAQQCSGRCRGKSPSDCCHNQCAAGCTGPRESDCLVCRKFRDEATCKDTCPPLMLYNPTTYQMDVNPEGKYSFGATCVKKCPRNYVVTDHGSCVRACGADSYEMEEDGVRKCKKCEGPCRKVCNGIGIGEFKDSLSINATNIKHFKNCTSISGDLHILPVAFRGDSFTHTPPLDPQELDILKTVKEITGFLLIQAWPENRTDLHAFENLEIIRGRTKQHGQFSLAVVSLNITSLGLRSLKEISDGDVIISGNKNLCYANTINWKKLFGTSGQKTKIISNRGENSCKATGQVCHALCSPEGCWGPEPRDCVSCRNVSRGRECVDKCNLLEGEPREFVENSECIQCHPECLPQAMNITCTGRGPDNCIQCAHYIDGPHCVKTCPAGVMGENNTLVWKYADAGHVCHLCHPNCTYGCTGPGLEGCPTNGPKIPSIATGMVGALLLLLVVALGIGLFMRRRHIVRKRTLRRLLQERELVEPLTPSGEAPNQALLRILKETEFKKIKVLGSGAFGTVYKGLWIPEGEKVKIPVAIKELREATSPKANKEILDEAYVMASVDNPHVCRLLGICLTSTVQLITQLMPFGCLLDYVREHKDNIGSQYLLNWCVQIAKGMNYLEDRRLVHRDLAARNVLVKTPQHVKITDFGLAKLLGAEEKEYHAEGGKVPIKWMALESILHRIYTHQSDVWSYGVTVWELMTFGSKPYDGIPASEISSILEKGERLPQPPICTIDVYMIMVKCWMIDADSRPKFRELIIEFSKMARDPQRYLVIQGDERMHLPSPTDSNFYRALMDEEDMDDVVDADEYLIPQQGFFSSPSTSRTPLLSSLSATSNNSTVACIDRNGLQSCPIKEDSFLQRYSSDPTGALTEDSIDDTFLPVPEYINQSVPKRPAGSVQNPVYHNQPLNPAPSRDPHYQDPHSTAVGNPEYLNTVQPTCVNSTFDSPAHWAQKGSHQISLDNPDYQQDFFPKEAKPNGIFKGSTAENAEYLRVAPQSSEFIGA

As for `COc1ccc(Oc2ccc(Nc3ncnc4sc5c(c34)CCN(C(=O)/C=C/CN(C)C)C5)cc2C)cn1` [Compound 95, (E)-4-(Dimethylamino)-1-(4-((4-((6-methoxypyridin-3-yl)oxy)-3-methylphenyl)amino)-5,6-dihydropyrido[4′,3′:4,5]thieno[2,3-d]pyrimidin-7(8H)-yl)but-2-en-1-one], the EC50 lay in the range of 100 to 350 nM.
